Measured values: BindingDB's records for doi:10.1016/j.bmcl.2017.10.036 (Williams College, 2017)

molecular target: T1, Histidine kinase (Caulobacter vibrioides, UniProt Q9X688); assay: Inhibition of recombinant Caulobacter vibrioides cell cycle histidine kinase CckA deltaTM mutant DHp domain (70 to 691 residues) expressed in Escherichia coli in presence of varying levels of ATP measured every 60 secs for 2 hrs by PK/LDH enzyme coupled assay
T1 sequence (Q9X688 whole entry): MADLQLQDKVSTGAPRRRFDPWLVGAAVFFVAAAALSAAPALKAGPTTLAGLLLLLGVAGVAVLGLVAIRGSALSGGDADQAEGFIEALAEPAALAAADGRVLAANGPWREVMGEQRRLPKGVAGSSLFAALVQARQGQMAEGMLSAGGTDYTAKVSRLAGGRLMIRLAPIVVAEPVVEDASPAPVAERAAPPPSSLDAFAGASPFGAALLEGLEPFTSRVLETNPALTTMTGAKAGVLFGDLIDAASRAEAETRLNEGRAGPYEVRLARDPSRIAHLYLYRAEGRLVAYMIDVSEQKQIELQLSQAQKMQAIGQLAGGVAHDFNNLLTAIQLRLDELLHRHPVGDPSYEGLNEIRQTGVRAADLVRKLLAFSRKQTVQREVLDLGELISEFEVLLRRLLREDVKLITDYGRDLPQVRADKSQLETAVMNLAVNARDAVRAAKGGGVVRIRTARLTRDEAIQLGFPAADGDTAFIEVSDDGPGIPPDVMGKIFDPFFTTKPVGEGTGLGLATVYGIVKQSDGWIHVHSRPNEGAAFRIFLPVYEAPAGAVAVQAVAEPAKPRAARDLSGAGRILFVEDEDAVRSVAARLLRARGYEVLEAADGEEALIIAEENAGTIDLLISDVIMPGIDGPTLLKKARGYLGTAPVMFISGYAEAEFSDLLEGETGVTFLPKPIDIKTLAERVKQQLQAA

| SMILES | IC50 [µM] |
| --- | --- |
| Cc1[nH]nc(-c2cc(Cl)c(O)cc2O)c1-c1ccc2c(c1)OCCO2 [4-chloro-6-[4-(2,3-dihydro-1,4-benzodioxin-6-yl)-5-methyl-1H-pyrazol-3-yl]benzene-1,3-diol] | 11.2 |
| Oc1cc(O)c(-c2n[nH]cc2-c2ccc3c(c2)OCCO3)cc1Cl | 32.3 |
| CCNC(=O)c1noc(-c2cc(C(C)C)c(O)cc2O)c1-c1ccc(CN2CCOCC2)cc1 [5-[2,4-dihydroxy-5-(propan-2-yl)phenyl]-N-ethyl-4-[4-(morpholin-4-ylmethyl)phenyl]-1,2-oxazole-3-carboxamide] | 7.3 |
| CCc1cc(-c2n[nH]c(C)c2-c2ccc3c(c2)OCCO3)c(O)cc1O | 28 |
| COc1ccc(-c2c(-c3cc(Cl)c(O)cc3O)n[nH]c2C)cc1 | 12.3 |
